Test results reported in the NIST ThermoML archive (doi:10.1016/j.jct.2017.07.006).
Numbers after ± are expanded uncertainties.

What was measured:
[1] = molar heat capacity at constant pressure; details: 101.33 kPa, Liquid, DSC
[2] = Liquid; for thermal conductivity: 101.33 kPa, Laser flash apparatus; for Critical pressure / Critical temperature: Resistive pulse heating

CCCCCCCC(=O)OCC(COC(=O)CCCCCCC)OC(=O)CCCCCCC [1,2,3-propanetriol trioctanoate]
Details | molar heat capacity at constant pressure, [1] [J/K/mol] | thermal conductivity, [2] [W/m/K]
315 K | 913.3 ± 37 | 0.152 ± 0.011
320 K | 921 ± 37 | 0.152 ± 0.011
325 K | 928.5 ± 38 | 0.151 ± 0.011
330 K | 935.9 ± 38 | 0.151 ± 0.011
335 K | 943.1 ± 38 | 0.151 ± 0.011
340 K | 950.2 ± 39 | 0.15 ± 0.011
345 K | 957.1 ± 39 | 0.15 ± 0.011
350 K | 964 ± 39 | 0.15 ± 0.011
355 K | 970.7 ± 39 | 0.149 ± 0.011
360 K | 977.4 ± 40 | 0.149 ± 0.011
365 K | 984.1 ± 40 | 0.148 ± 0.011
370 K | 990.7 ± 40 | 0.148 ± 0.011
375 K | 997.2 ± 40 | 0.147 ± 0.011
380 K | 1004 ± 41 | 0.146 ± 0.011
385 K | 1010 ± 41 | 0.146 ± 0.011
390 K | 1017 ± 41 | 0.145 ± 0.01
395 K | 1024 ± 42 | 0.145 ± 0.01
400 K | 1030 ± 42 | 0.144 ± 0.01
405 K | 1037 ± 42 | 0.144 ± 0.01
410 K | 1044 ± 42 | 0.143 ± 0.01
415 K | 1051 ± 43 | 0.142 ± 0.01
420 K | 1058 ± 43 | 0.142 ± 0.01
425 K | 1065 ± 43 | 0.141 ± 0.01

[2]
Details | Critical pressure [kPa] | Critical temperature [K]
– | 830 ± 40 | 836 ± 13

CCCCCCCCCCCC(=O)OCC(COC(=O)CCCCCCCCCCC)OC(=O)CCCCCCCCCCC [1,2,3-propanetriyl tridodecanoate]
Details | molar heat capacity at constant pressure, [1] [J/K/mol] | thermal conductivity, [2] [W/m/K]
330 K | 1316 ± 53 | 0.164 ± 0.012
335 K | 1323 ± 54 | 0.163 ± 0.012
340 K | 1331 ± 54 | 0.162 ± 0.012
345 K | 1340 ± 54 | 0.161 ± 0.012
350 K | 1350 ± 55 | 0.161 ± 0.012
355 K | 1361 ± 55 | 0.16 ± 0.012
360 K | 1372 ± 56 | 0.16 ± 0.012
365 K | 1384 ± 56 | 0.159 ± 0.011
370 K | 1396 ± 57 | 0.159 ± 0.011
375 K | 1407 ± 57 | 0.158 ± 0.011
380 K | 1418 ± 58 | 0.158 ± 0.011
385 K | 1428 ± 58 | 0.157 ± 0.011
390 K | 1438 ± 58 | 0.156 ± 0.011
395 K | 1446 ± 59 | 0.155 ± 0.011
400 K | 1453 ± 59 | 0.154 ± 0.011
405 K | 1458 ± 59 | 0.153 ± 0.011
410 K | 1461 ± 59 | 0.151 ± 0.011

[2]
Details | Critical pressure [kPa] | Critical temperature [K]
– | 650 ± 30 | 899 ± 13

CCCCCCCCCC(=O)OCC(COC(=O)CCCCCCCCC)OC(=O)CCCCCCCCC [1,2,3-propanetriyl tridecanoate]
Details | molar heat capacity at constant pressure, [1] [J/K/mol] | thermal conductivity, [2] [W/m/K]
320 K | 1093 ± 44 | 0.153 ± 0.011
325 K | 1106 ± 45 | 0.153 ± 0.011
330 K | 1117 ± 45 | 0.153 ± 0.011
335 K | 1128 ± 46 | 0.153 ± 0.011
340 K | 1139 ± 46 | 0.153 ± 0.011
345 K | 1148 ± 47 | 0.153 ± 0.011
350 K | 1157 ± 47 | 0.152 ± 0.011
355 K | 1166 ± 47 | 0.152 ± 0.011
360 K | 1174 ± 48 | 0.151 ± 0.011
365 K | 1182 ± 48 | 0.15 ± 0.011
370 K | 1189 ± 48 | 0.15 ± 0.011
375 K | 1196 ± 49 | 0.15 ± 0.011
380 K | 1203 ± 49 | 0.149 ± 0.011
385 K | 1209 ± 49 | 0.148 ± 0.011
390 K | 1216 ± 49 | 0.147 ± 0.011
395 K | 1222 ± 50 | 0.147 ± 0.011
400 K | 1228 ± 50 | 0.146 ± 0.011
405 K | 1235 ± 50 | 0.145 ± 0.01
410 K | 1241 ± 50 | 0.144 ± 0.01
415 K | 1248 ± 51 | 0.143 ± 0.01

[2]
Details | Critical pressure [kPa] | Critical temperature [K]
– | 750 ± 30 | 864 ± 13

CCCCCCCCCCCCCC(=O)OCC(COC(=O)CCCCCCCCCCCCC)OC(=O)CCCCCCCCCCCCC [1,2,3-propanetriyl tri(tetradecanoate)]
Details | molar heat capacity at constant pressure, [1] [J/K/mol] | thermal conductivity, [2] [W/m/K]
350 K | 1547 ± 63 | 0.171 ± 0.012
355 K | 1557 ± 63 | 0.17 ± 0.012
360 K | 1568 ± 64 | 0.17 ± 0.012
365 K | 1580 ± 64 | 0.169 ± 0.012
370 K | 1592 ± 65 | 0.169 ± 0.012
375 K | 1606 ± 65 | 0.168 ± 0.012
380 K | 1619 ± 66 | 0.168 ± 0.012
385 K | 1632 ± 66 | 0.168 ± 0.012
390 K | 1645 ± 67 | 0.167 ± 0.012
395 K | 1657 ± 67 | 0.167 ± 0.012
400 K | 1668 ± 68 | 0.166 ± 0.012
405 K | 1678 ± 68 | 0.165 ± 0.012
410 K | 1686 ± 68 | 0.164 ± 0.012

[2]
Details | Critical pressure [kPa] | Critical temperature [K]
– | 610 ± 30 | 925 ± 14
